Test results taken from the NIST ThermoML archive (doi:10.1016/j.fluid.2006.03.015).
± gives the expanded uncertainty stated by the source.

Assay: molar heat capacity at constant pressure
Settings: 101.33 kPa, Liquid

CCCC[n+]1ccccc1.O=S(=O)([N-]S(=O)(=O)C(F)(F)F)C(F)(F)F [1-butylpyridinium bis[(trifluoromethyl)sulfonyl]imide]
Settings	molar heat capacity at constant pressure [J/K/mol]
323.18 K, Large sample (1 g) DSC	592 ± 31
328.15 K, modulated-temperature differential scanning calorimetry MDSC	604 ± 30
328.18 K, Large sample (1 g) DSC	595 ± 31
330.15 K, Small sample (50 mg) DSC	587 ± 31
333.13 K, Large sample (1 g) DSC	596 ± 31
333.15 K, modulated-temperature differential scanning calorimetry MDSC	607 ± 30
335.15 K, Small sample (50 mg) DSC	590 ± 31
338.14 K, Large sample (1 g) DSC	600 ± 31
338.15 K, modulated-temperature differential scanning calorimetry MDSC	610 ± 31
340.15 K, Small sample (50 mg) DSC	594 ± 31
343.15 K, modulated-temperature differential scanning calorimetry MDSC	610 ± 31
343.16 K, Large sample (1 g) DSC	603 ± 31
345.15 K, Small sample (50 mg) DSC	596 ± 31
348.12 K, Large sample (1 g) DSC	603 ± 31
348.15 K, modulated-temperature differential scanning calorimetry MDSC	616 ± 31
350.15 K, Small sample (50 mg) DSC	600 ± 31
353.14 K, Large sample (1 g) DSC	604 ± 31
353.15 K, modulated-temperature differential scanning calorimetry MDSC	615 ± 31
355.15 K, Small sample (50 mg) DSC	603 ± 31
358.15 K, Large sample (1 g) DSC	609 ± 32
358.15 K, modulated-temperature differential scanning calorimetry MDSC	621 ± 31
360.15 K, Small sample (50 mg) DSC	605 ± 31
363.15 K, modulated-temperature differential scanning calorimetry MDSC	624 ± 31
363.17 K, Large sample (1 g) DSC	614 ± 32
365.15 K, Small sample (50 mg) DSC	607 ± 32
368.15 K, modulated-temperature differential scanning calorimetry MDSC	623 ± 31
368.17 K, Large sample (1 g) DSC	617 ± 32
370.15 K, Small sample (50 mg) DSC	610 ± 32
373.15 K, modulated-temperature differential scanning calorimetry MDSC	628 ± 31
373.16 K, Large sample (1 g) DSC	617 ± 32
375.15 K, Small sample (50 mg) DSC	613 ± 32
378.13 K, Large sample (1 g) DSC	618 ± 32
378.15 K, modulated-temperature differential scanning calorimetry MDSC	628 ± 31
380.15 K, Small sample (50 mg) DSC	616 ± 32
383.14 K, Large sample (1 g) DSC	621 ± 32
383.15 K, modulated-temperature differential scanning calorimetry MDSC	631 ± 32
385.15 K, Small sample (50 mg) DSC	619 ± 32
388.14 K, Large sample (1 g) DSC	623 ± 32
388.15 K, modulated-temperature differential scanning calorimetry MDSC	635 ± 32
390.15 K, Small sample (50 mg) DSC	622 ± 32
393.14 K, Large sample (1 g) DSC	626 ± 33
393.15 K, modulated-temperature differential scanning calorimetry MDSC	636 ± 32
395.15 K, Small sample (50 mg) DSC	624 ± 32
398.13 K, Large sample (1 g) DSC	630 ± 33
398.15 K, modulated-temperature differential scanning calorimetry MDSC	636 ± 32
400.15 K, Small sample (50 mg) DSC	627 ± 33
403.15 K, modulated-temperature differential scanning calorimetry MDSC	640 ± 32
403.17 K, Large sample (1 g) DSC	631 ± 33
405.15 K, Small sample (50 mg) DSC	630 ± 33
408.14 K, Large sample (1 g) DSC	632 ± 33
408.15 K, modulated-temperature differential scanning calorimetry MDSC	642 ± 32
410.15 K, Small sample (50 mg) DSC	633 ± 33
413.15 K, modulated-temperature differential scanning calorimetry MDSC	644 ± 32
413.16 K, Large sample (1 g) DSC	633 ± 33
415.15 K, Small sample (50 mg) DSC	635 ± 33
418.13 K, Large sample (1 g) DSC	636 ± 33
418.15 K, modulated-temperature differential scanning calorimetry MDSC	645 ± 32
420.15 K, Small sample (50 mg) DSC	639 ± 33
423.15 K, Large sample (1 g) DSC	635 ± 33
425.15 K, Small sample (50 mg) DSC	641 ± 33
